“Also recorded” adds a separate entry of the source. Read-outs that look alike come from different tables or passages of the source. Where no end group is shown, it is not given here.
What was measured:
[1] = Plasma stability of GLP-1 peptide complex (remaining rate in rat plasma, HPLC/MS); assay type: in vitro ADME, SD rats; details: for remaining at 8 h, 0.5 μmol/L / remaining at 48 h, 0.5 μmol/L: SD
From the text: SD rats were anesthetized with diethyl ether, whole blood was collected and a plasma fraction was separated therefrom.

[2] = biological target: T1, endogenous GLP-1 receptor (Mus musculus, UniProt O35659); assay: Insulin secretion capacity of GLP-1 peptide complex in MIN 6 cells;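 on all read-outs here: insulin released into the supernatant of MIN 6 cultures quantified by ELISA, absorbance read at 450 nm with 620 nm reference after substrate addition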; assay type: cell-based; details: for Insulin secretion capacity (% of control): MIN 6 cells, 1000 pM, 15 mM glucose, control = native GLP-1 at 1000 pM; for Insulin secretion capacity (activity) compared with native GLP-1, in words: MIN 6 cells, 30, 100, 300 or 1000 pM (FIG. 2, FIG. 3)
T1 construct: expressing an endogenous GLP-1 receptor; endogenous in cells; host or cells: MIN 6 mouse insulinoma cells (obtained from a person)
T1 sequence (O35659 22-463): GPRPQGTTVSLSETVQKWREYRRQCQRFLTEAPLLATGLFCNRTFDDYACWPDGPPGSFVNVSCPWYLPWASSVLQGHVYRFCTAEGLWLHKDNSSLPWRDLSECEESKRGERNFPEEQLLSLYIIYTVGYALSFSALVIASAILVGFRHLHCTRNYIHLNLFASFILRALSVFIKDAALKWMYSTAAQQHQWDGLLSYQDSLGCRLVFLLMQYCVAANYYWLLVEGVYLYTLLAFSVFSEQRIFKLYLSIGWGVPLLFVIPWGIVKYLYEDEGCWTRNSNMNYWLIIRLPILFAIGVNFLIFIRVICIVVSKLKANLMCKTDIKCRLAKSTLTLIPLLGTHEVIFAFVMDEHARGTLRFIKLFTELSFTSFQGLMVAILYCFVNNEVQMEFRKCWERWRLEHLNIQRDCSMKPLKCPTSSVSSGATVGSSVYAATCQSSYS
Method: MIN 6 was seeded on a multi-plate, which was cultivated at 37° C. for 48 hours. After that, the culture was washed twice with a KRH buffer solution including 2 mM glucose solution (including NaCl 119 mM, KCl 4.74 mM, CaCl2 2.54 mM, MgCl2 1.19 mM, KH2PO4 1.19 mM, 10 mM HEPES buffer solution pH7.3, and 0.1% BSA), and then it was incubated at 37° C. for one hour. […] A supernatant thereof was recovered, and an amount of insulin secreted was measured. The measurement of the insulin was performed in an enzyme-linked immunosorbent assay (ELISA), and an absorbance was measured at 450 nm (a sub-wavelength: 620 nm) after the addition of a substrate.
EC50 values thereof were calculated in the same manner as in Part 2, and the influence on the bioactivity caused by the addition of the partial peptide of the GA module were inspected in detail.
The analysis was performed using the following calculation formula.

[3] = rat plasma, 0.5 μmol/L, 37° C., 8 hours, relative to 0 hour = 100%, read-out: Remaining rate in plasma after 8 hours (%)
[4] = rat plasma, 0.5 μmol/L, 37° C., 48 hours, relative to 0 hour = 100%, read-out: Remaining rate in plasma after 48 hours (%)
[5] = rat plasma, 0.5 μmol/L, 37° C., 48 hours, relative to 0 hour = 100%

remaining at 8 h, 0.5 μmol/L ([1]; rat, plasma) [%] | remaining at 48 h, 0.5 μmol/L ([1]; rat, plasma) [%] | Insulin secretion capacity (% of control) [2] [%] | Compound | further results
99 | 88 | 139 | HSEGTFTSDVSSYLEGQAAKEFIAWLVKGAKTVEGVKALIDEILAA [Example 18, [Ser8]-GLP-1(7-35)-GAm(28-44)] | 
 | 84 | 45 | HSEGTFTSDVSSYLEGQAAKEFIAWLVKGYKNLINNAKTVEGVKALIDEILAALP-NH2 [Comparative Example 6, [Ser8]-GLP-1(7-35)-GAm(21-46)-NH2, reference compound] | 
114 | 102 | 89 | HSEGTFTSDVSSYLEGQAAKEFIAWLVKGGVKALIDEILAA [Example 19, [Ser8]-GLP-1(7-35)-GAm(33-44)] | 
88 | 87 | 105 | HSEGTFTSDVSSYLEGQAAKEFIAWLVKGAKTVEGVKALIDEIL-NH2 [Example 13, [Ser8]-GLP-1(7-35)-GAm(28-42)-NH2] | 
 |  | 120 | [Ser8]-GLP-1(7-35)-GAm(38-44)-NH2 [Example 2] | 
 |  | 109 | [Ser8]-GLP-1(7-35)-GAm(32-44)-NH2 [Example 10] | 
27 | 0 |  | HSEGTFTSDVSSYLEGQAAKEFIAWLVKGAKTVEGVKAL-NH2 [Comparative Example 8, [Ser8]-GLP-1(7-35)-GAm(28-37)-NH2, reference compound] | 
80 | 93 |  | HSEGTFTSDVSSYLEGQAAKEFIAWLVKGKNLINNAKTVEGVKALIDEILAALP-NH2 [Example 17, [Ser8]-GLP-1(7-35)-GAm(22-46)-NH2] | 
35 | 0 |  | CC[C@H](C)[C@H](NC(=O)[C@H](CCC(=O)O)NC(=O)[C@H](CC(=O)O)NC(=O)[C@@H](NC(=O)CNC(=O)[C@H](CCCCN)NC(=O)[C@@H](NC(=O)[C@H](CC(C)C)NC(=O)[C@H](Cc1c[nH]c2ccccc12)NC(=O)[C@H](C)NC(=O)[C@@H](NC(=O)[C@H](Cc1ccccc1)NC(=O)[C@H](CCC(=O)O)NC(=O)[C@H](CCCCN)NC(=O)[C@H](C)NC(=O)[C@H](C)NC(=O)[C@H](CCC(N)=O)NC(=O)CNC(=O)[C@H](CCC(=O)O)NC(=O)[C@H](CC(C)C)NC(=O)[C@H](Cc1ccc(O)cc1)NC(=O)[C@H](CO)NC(=O)[C@H](CO)NC(=O)[C@@H](NC(=O)[C@H](CC(=O)O)NC(=O)[C@H](CO)NC(=O)[C@@H](NC(=O)[C@H](Cc1ccccc1)NC(=O)[C@@H](NC(=O)CNC(=O)[C@H](CCC(=O)O)NC(=O)[C@H](C)NC(=O)[C@@H](N)Cc1c[nH]cn1)[C@@H](C)O)[C@@H](C)O)C(C)C)[C@@H](C)CC)C(C)C)[C@@H](C)CC)C(N)=O [Comparative Example 10, GLP-1(7-35)-GAm(38-41)-NH2, reference compound] | 
63 | 0 |  | CC[C@H](C)[C@H](NC(=O)[C@H](Cc1ccccc1)NC(=O)[C@H](CCC(=O)O)NC(=O)[C@H](CCCCN)NC(=O)[C@H](C)NC(=O)[C@H](C)NC(=O)[C@H](CCC(N)=O)NC(=O)CNC(=O)[C@H](CCC(=O)O)NC(=O)[C@H](CC(C)C)NC(=O)[C@H](Cc1ccc(O)cc1)NC(=O)[C@H](CO)NC(=O)[C@H](CO)NC(=O)[C@@H](NC(=O)[C@H](CC(=O)O)NC(=O)[C@H](CO)NC(=O)[C@@H](NC(=O)[C@H](Cc1ccccc1)NC(=O)[C@@H](NC(=O)CNC(=O)[C@H](CCC(=O)O)NC(=O)[C@H](CO)NC(=O)[C@@H](N)Cc1c[nH]cn1)[C@@H](C)O)[C@@H](C)O)C(C)C)C(=O)N[C@@H](C)C(=O)N[C@@H](Cc1c[nH]c2ccccc12)C(=O)N[C@@H](CC(C)C)C(=O)N[C@H](C(=O)N[C@@H](CCCCN)C(=O)NCC(=O)N[C@@H](CC(=O)O)C(=O)N[C@@H](CCC(=O)O)C(=O)N[C@H](C(=O)N[C@@H](CC(C)C)C(=O)N[C@@H](C)C(=O)N[C@@H](C)C(N)=O)[C@@H](C)CC)C(C)C [Comparative Example 9, [Ser8]-GLP-1(7-35)-GAm(39-44)-NH2, reference compound] | 
0 | 0 |  | CC[C@H](C)[C@H](NC(=O)CNC(=O)[C@H](CCCCN)NC(=O)[C@@H](NC(=O)[C@H](CC(C)C)NC(=O)[C@H](Cc1c[nH]c2ccccc12)NC(=O)[C@H](C)NC(=O)[C@@H](NC(=O)[C@H](Cc1ccccc1)NC(=O)[C@H](CCC(=O)O)NC(=O)[C@H](CCCCN)NC(=O)[C@H](C)NC(=O)[C@H](C)NC(=O)[C@H](CCC(N)=O)NC(=O)CNC(=O)[C@H](CCC(=O)O)NC(=O)[C@H](CC(C)C)NC(=O)[C@H](Cc1ccc(O)cc1)NC(=O)[C@H](CO)NC(=O)[C@H](CO)NC(=O)[C@@H](NC(=O)[C@H](CC(=O)O)NC(=O)[C@H](CO)NC(=O)[C@@H](NC(=O)[C@H](Cc1ccccc1)NC(=O)[C@@H](NC(=O)CNC(=O)[C@H](CCC(=O)O)NC(=O)[C@H](C)NC(=O)[C@@H](N)Cc1c[nH]cn1)[C@@H](C)O)[C@@H](C)O)C(C)C)[C@@H](C)CC)C(C)C)C(=O)N[C@@H](CC(=O)O)C(=O)N[C@@H](CCC(=O)O)C(N)=O [Comparative Example 11, GLP-1(7-35)-GAm(38-40)-NH2, reference compound] | 

Continued, compound first:

Compound | remaining at 8 h, 0.5 μmol/L ([1]; rat, plasma) [%] | remaining at 48 h, 0.5 μmol/L ([1]; rat, plasma) [%] | Insulin secretion capacity (% of control) [2] [%] | further results
HAEGTFTSDVSSYLEGQAAKEFIAWLVKGGVKALIDEILA-NH2 [Example 7, GLP-1(7-35)-GAm(33-43)-NH2] | 94 | 87 | 105 | 
HSEGTFTSDVSSYLEGQAAKEFIAWLVKGAKTVEGVKALIDE-NH2 [Comparative Example 7, [Ser8]-GLP-1(7-35)-GAm(28-40)-NH2, reference compound] | 81 | 4 |  | 
CC[C@H](C)[C@H](NC(=O)[C@H](Cc1ccccc1)NC(=O)[C@H](CCC(=O)O)NC(=O)[C@H](CCCCN)NC(=O)[C@H](C)NC(=O)[C@H](C)NC(=O)[C@H](CCC(N)=O)NC(=O)CNC(=O)[C@H](CCC(=O)O)NC(=O)[C@H](CC(C)C)NC(=O)[C@H](Cc1ccc(O)cc1)NC(=O)[C@H](CO)NC(=O)[C@H](CO)NC(=O)[C@@H](NC(=O)[C@H](CC(=O)O)NC(=O)[C@H](CO)NC(=O)[C@@H](NC(=O)[C@H](Cc1ccccc1)NC(=O)[C@@H](NC(=O)CNC(=O)[C@H](CCC(=O)O)NC(=O)CNC(=O)[C@@H](N)Cc1c[nH]cn1)[C@@H](C)O)[C@@H](C)O)C(C)C)C(=O)N[C@@H](C)C(=O)N[C@@H](Cc1c[nH]c2ccccc12)C(=O)N[C@@H](CC(C)C)C(=O)N[C@H](C(=O)N[C@@H](CCCCN)C(=O)NCC(=O)N[C@@H](CCCNC(=N)N)C(=O)N1CCC[C@H]1C(=O)N[C@@H](CO)C(=O)N[C@@H](CO)C(N)=O)C(C)C [Comparative Example 12, [Gly8]-GLP-1(7-35)-RPSS-NH2, reference compound] |  |  |  | remaining at 8 h, 0.5 μmol/L [1, 3]: 34%; remaining at 48 h, 0.5 μmol/L [1, 4]: 0%; Remaining rate in plasma after 48 hours (%) [1, 5]: 0%
GLP-1(7-36)-NH2 [Comparative Example 1, reference compound] |  |  | 100 | 
HSEGTFTSDVSSYLEGQAAKEFIAWLVKGVSDYYKNLINNAKTVEGVKALIDEILAALP-NH2 [Comparative Example 5, [Ser8]-GLP-1(7-35)-GAm(17-46)-NH2, reference compound] |  |  |  | remaining at 8 h, 0.5 μmol/L [1, 3]: 105%; remaining at 48 h, 0.5 μmol/L [1, 4]: 105%; Remaining rate in plasma after 48 hours (%) [1, 5]: 105%; EC50 [2]: > 1 nM; Insulin secretion capacity (activity) compared with native GLP-1, in words [2]: hardly detected; also recorded: remarkably decreased
HSEGTFTSDVSSYLEEEAAKEFIAWLVKGGPSSGAPPPS-NH2 [Comparative Example 13, reference compound] | 57 | 12 |  | 
CC[C@H](C)[C@H](NC(=O)CNC(=O)[C@H](CCCCN)NC(=O)[C@@H](NC(=O)[C@H](CC(C)C)NC(=O)[C@H](Cc1c[nH]c2ccccc12)NC(=O)[C@H](C)NC(=O)[C@@H](NC(=O)[C@H](Cc1ccccc1)NC(=O)[C@H](CCC(=O)O)NC(=O)[C@H](CCCCN)NC(=O)[C@H](C)NC(=O)[C@H](C)NC(=O)[C@H](CCC(N)=O)NC(=O)CNC(=O)[C@H](CCC(=O)O)NC(=O)[C@H](CC(C)C)NC(=O)[C@H](Cc1ccc(O)cc1)NC(=O)[C@H](CO)NC(=O)[C@H](CO)NC(=O)[C@@H](NC(=O)[C@H](CC(=O)O)NC(=O)[C@H](CO)NC(=O)[C@@H](NC(=O)[C@H](Cc1ccccc1)NC(=O)[C@@H](NC(=O)CNC(=O)[C@H](CCC(=O)O)NC(=O)[C@H](C)NC(=O)[C@@H](N)Cc1c[nH]cn1)[C@@H](C)O)[C@@H](C)O)C(C)C)[C@@H](C)CC)C(C)C)C(=O)N[C@@H](CC(=O)O)C(=O)N[C@@H](CCC(=O)O)C(=O)N[C@H](C(=O)N[C@@H](CC(C)C)C(N)=O)[C@@H](C)CC [Example 5, GLP-1(7-35)-GAm(38-42)-NH2] |  |  | 112 | remaining at 8 h, 0.5 μmol/L [1, 3]: 73%; remaining at 48 h, 0.5 μmol/L [1, 4]: 83%
[Ser8]-GLP-1(7-35)-GAm(38-42)-NH2 [Example 1] |  |  | 125 | 
[Ser8]-GLP-1(7-35)-GAm(28-44)-NH2 [Example 14] |  |  | 105 | Insulin secretion capacity (activity) compared with native GLP-1, in words [2]: almost the same activity as that of the native GLP-1

— patent publication US20130123460A1, “PEPTIDE FOR IMPROVING BIOSTABILITY OF BIOACTIVE SUBSTANCE, AND BIOACTIVE SUBSTANCE HAVING IMPROVED BIOSTABILITY” (priority 2010, published 2013)
